Test: mn = molality of the nth substance listed, in mol/kg
Settings: for surface tension liquid-gas: Pendant drop shape; for electrical conductivity: 100 kPa, Liquid, Mettler Toledo inLab 710

CCCCCCCCCCCCCC[N+](C)(C)CCCCCC[N+](C)(C)CCCCCCCCCCCCCC.[Br-].[Br-] + O
Settings	electrical conductivity, 298.15 K [S/m]	electrical conductivity, 303.15 K [S/m]	electrical conductivity, 308.15 K [S/m]	electrical conductivity, 313.15 K [S/m]	electrical conductivity, 318.15 K [S/m]	electrical conductivity, 323.15 K [S/m]	surface tension liquid-gas, 298.15 K [mN/m]
m1 = 1e-05	–	–	–	–	–	–	61.8
m1 = 2e-05	–	–	–	–	–	–	56.01
m1 = 3e-05	–	–	–	–	–	–	52.48
m1 = 4e-05	–	–	–	–	–	–	50.87
m1 = 5e-05	–	–	–	–	–	–	49.03
m1 = 6e-05	–	–	–	–	–	–	47.1
m1 = 7e-05	–	–	–	–	–	–	45.98
m1 = 8e-05	–	–	–	–	–	–	43.05
m1 = 0.0001	–	–	–	–	–	–	42.1
m1 = 0.000111	0.00247	0.00278	0.00326	0.00342	0.00369	0.00384	–
m1 = 0.000115	0.00256	–	–	–	–	–	–
m1 = 0.000118	–	0.00293	0.00339	0.00353	0.00387	0.004	–
m1 = 0.00012	0.00265	–	–	–	–	–	41.5
m1 = 0.000125	0.00273	0.00311	0.00353	0.00364	0.00407	0.00426	–
m1 = 0.00013	0.0028	–	–	–	–	–	–
m1 = 0.000133	–	0.00327	0.00369	0.00386	0.00431	0.00452	–
m1 = 0.000136	0.00289	–	–	–	–	–	–
m1 = 0.00014	–	–	–	–	–	–	40.55
m1 = 0.000143	0.003	0.00347	0.00386	0.00411	0.00454	0.00482	–
m1 = 0.00015	0.00312	0.00361	0.004	0.00429	0.00478	0.00504	–
m1 = 0.000158	0.00326	0.00375	0.00418	0.00449	0.00503	0.00526	–
m1 = 0.000167	0.00338	0.00391	0.00438	0.00467	0.00529	0.00554	–
m1 = 0.00017	–	–	–	–	–	–	39.84
m1 = 0.000176	0.00352	0.00407	0.00458	0.00494	0.00559	0.00586	–
m1 = 0.000188	0.00365	0.00424	0.00478	0.00523	0.00588	0.00618	–
m1 = 0.000197	–	0.00435	0.00493	0.00541	0.00613	0.00647	–
m1 = 0.0002	0.0038	–	–	–	–	–	39.13
m1 = 0.000207	–	0.0045	0.00512	0.00562	0.00638	0.00676	–
m1 = 0.000214	0.00396	–	–	–	–	–	–
m1 = 0.000218	–	0.00464	0.00529	0.00582	0.00665	0.00702	–
m1 = 0.000231	0.00413	0.00479	0.00548	0.00602	0.00694	0.00736	–
m1 = 0.00024	0.00423	0.00491	0.0056	0.00617	0.00714	0.0076	–
m1 = 0.00025	0.00434	0.00502	0.00573	0.00633	0.00734	0.00784	–
m1 = 0.000261	0.00445	0.00513	0.00587	0.00647	0.00755	0.00808	–
m1 = 0.000273	0.00456	0.00524	0.00604	0.00663	0.00777	0.00832	–
m1 = 0.000286	0.00469	0.00539	0.00621	0.00681	0.008	0.00856	–
m1 = 0.0003	0.00481	0.00556	0.00639	0.00704	0.00822	0.0088	38.57
m1 = 0.0004	–	–	–	–	–	–	38.4

From the NIST ThermoML archive (doi:10.1021/je500513b)
